We go through 21 compounds from patent publication US20230040770A1, “HETEROCYCLIC COMPOUND AND USE THEREOF” (TAKEDA PHARMACEUTICAL COMPANY LIMITED, priority 2019, published 2023).

This assay addresses T1, human orexin type 2 receptor (Homo sapiens, UniProt O43614).
T1 construct: expressed in transfected cells
T1 sequence (O43614 1-444): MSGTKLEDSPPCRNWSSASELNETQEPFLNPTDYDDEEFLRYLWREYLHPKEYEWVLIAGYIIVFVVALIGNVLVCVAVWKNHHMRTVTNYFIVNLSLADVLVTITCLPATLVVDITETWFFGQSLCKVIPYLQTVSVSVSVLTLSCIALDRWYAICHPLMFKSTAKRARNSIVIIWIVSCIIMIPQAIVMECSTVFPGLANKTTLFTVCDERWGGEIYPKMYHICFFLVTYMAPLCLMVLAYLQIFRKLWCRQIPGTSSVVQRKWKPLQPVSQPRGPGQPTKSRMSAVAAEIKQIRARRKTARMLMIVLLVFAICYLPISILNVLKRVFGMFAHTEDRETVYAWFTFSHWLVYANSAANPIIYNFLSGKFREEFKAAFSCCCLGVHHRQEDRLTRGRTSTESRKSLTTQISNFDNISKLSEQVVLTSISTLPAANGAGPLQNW
The assay can be described thus: Measurement of orexin type 2 receptor agonist activity (calcium indicator fluorescence, CHO cells forcibly expressing human OX2 receptor). The assay is classed as cell-based. To be noted: compound at 3 μM; 0% = DMSO, 100% = orexin A (human) 10 nM. An excerpt:
To obtain a cell clone stably expressing human orexin type 2 receptor, human orexin type 2 receptor cDNA was inserted into pcDNA3.1(+) plasmid vector (Invitrogen), and a plasmid DNA for expression of human orexin type 2 receptor (pcDNA3.1(+)/hOX2R) was cloned. The plasmid DNA was introduced into CHO-dhfr cell by an electroporation method, and human orexin type 2 receptor expressing clone cells were obtained by limiting dilution method by using G418 drug resistance as a selection marker.
CHO cells forcibly expressing human OX2 receptor were seeded in each well of 384 well black transparent bottom plate (BD Falcon) at 7,500 cells/well, and cultured for one day in a 5% CO2 incubator at 37° C. After removal of the medium in the cell plate, assay buffer A containing a calcium indicator (HBSS (Thermo Fisher Scientific), 20 mM HEPES (Thermo Fisher Scientific), 0.1% BSA (Sigma-Aldrich), 2.5 μg/mL Fluo-4 AM (DOJINDO Chemical), 0.08% Pluronic F127 (DOJINDO Chemical), 1.25 mM probenecid (DOJINDO Chemical)) was added at 30 μL/well. The plate was stood for 30 min in a 5% CO2 incubator at 37° C., and further stood at room temperature for 30 min. A test compound prepared by diluting with assay buffer B (HBSS, 20 mM HEPES, 0.1% BSA) was added at 10 μL/well, and the fluorescence value was measured by FDSSμCELL (Hamamatsu Photonics K.K.) every one sec for 1 min, and thereafter every two sec for […]. The activity (%) of the test compound was calculated assuming that variation in the fluorescence value when DMSO was added instead of the test compound was 0%, and variation in the fluorescence value when orexin A (human) (PEPTIDE INSTITUTE, INC.) was added at the final concentration of 10 nM was 100%.
Regarding `O=C(C1CCO1)N1C[C@H](F)[C@H](NS(=O)(=O)C2CC2)[C@@H]1Cc1cccc(-c2ccccc2F)c1F` (stereo partly drawn) [Example 483, N-[(2S,3R,4S)-2-[(2,2′-difluroo[1,1′-biphenyl]-3-yl)methyl]-4-fluoro-1-(oxetane-2-carbonyl)pyrrolidin-3-yl]cyclopropanesulfonamide], the “OX2R agonist activity (3 μM, %)” value stood at 108%.

In the case of `O=C(C1CCO1)N1C[C@H](F)[C@H](NS(=O)(=O)C2CC2)[C@@H]1Cc1cccc(-c2cc(F)ccc2F)c1F` (stereo partly drawn) [Example 495, N-{(2S,3R,4S)-4-fluoro-1-(oxetane-2-carbonyl)-2-[(2,2′,5′-trifluoro[1,1′-biphenyl]-3-yl)methyl]pyrrolidin-3-yl}cyclopropanesulfonamide], the “OX2R agonist activity (3 μM, %)” value was 92%.

Take `CCS(=O)(=O)N[C@@H]1[C@H](Cc2cccc(-c3cccc(Cl)c3F)c2F)N(C(=O)C2CC2)CC1(F)F` [Example 249, N-[(2S,3R)-2-[(3′-chloro-2,2′-difluoro[1,1′-biphenyl]-3-yl)methyl]-1-(cyclopropanecarbonyl)-4,4-difluoropyrrolidin-3-yl]ethanesulfonamide]: the “OX2R agonist activity (3 μM, %)” value is recorded as 90%.

As to `CCS(=O)(=O)N[C@@H]1[C@H](Cc2cccc(-c3cc(F)cc(F)c3)c2F)N(C(=O)N2CCC2)CC1(F)F` [Example 283, N-{(2S,3R)-1-(azetidine-1-carbonyl)-4,4-difluoro-2-[(2,3′,5′-trifluoro[1,1′-biphenyl]-3-yl)methyl]pyrrolidin-3-yl}ethanesulfonamide], the “OX2R agonist activity (3 μM, %)” value is 93%.

Turning to `O=C(N1CCC1)N1CC(F)(F)[C@H](NS(=O)(=O)C2CC2)[C@@H]1Cc1cccc(-c2cc(F)cc(F)c2)c1F` [Example 525, N-{(2S,3R)-1-(azetidine-1-carbonyl)-4,4-difluoro-2-[(2,3′,5′-trifluoro[1,1′-biphenyl]-3-yl)methyl]pyrrolidin-3-yl]cyclopropanesulfonamide], the “OX2R agonist activity (3 μM, %)” value is listed as 85%.

For the compound `CCS(=O)(=O)N[C@@H]1[C@H](Cc2cccc(-c3cccc(C)c3)c2F)N(C(=O)C(C)(C)O)CC1(F)F` [Example 465, N-[(2S,3R)-4,4-difluoro-2-[(2-fluoro-3′-methyl[1,1′-biphenyl]-3-yl)methyl]-1-(2-hydroxy-2-methylpropanoyl)pyrrolidin-3-yl]ethanesulfonamide], the “OX2R agonist activity (3 μM, %)” value stood at 106%.

For the compound `CCS(=O)(=O)N[C@H]1[C@@H](F)CN(C(=O)C2CCO2)[C@H]1Cc1cccc(-c2cccc(C)c2F)c1F` (stereo partly drawn) [Example 499, N-[(2S,3R,4S)-2-[(2,2′-difluoro-3′-methyl[1,1′-biphenyl]-3-yl)methyl]-4-fluoro-1-(oxetane-2-carbonyl)pyrrolidin-3-yl]ethanesulfonamide], the “OX2R agonist activity (3 μM, %)” value amounted to 96%.

`CCS(=O)(=O)N[C@@H]1[C@H](Cc2cccc(-c3ccccc3)c2F)N(C(=O)[C@H]2CCCO2)CC1(F)F` [Example 105, N-{(2S,3R)-4,4-difluoro-2-[(2-fluoro[1,1′-biphenyl]-3-yl)methyl]-1-[(2R)-oxolane-2-carbonyl]pyrrolidin-3-yl}ethanesulfonamide]: the “OX2R agonist activity (3 μM, %)” value amounted to 99%.

Take `CCS(=O)(=O)N[C@H]1[C@@H](F)CN(C(=O)C(C)C)[C@H]1Cc1cccc(-c2cccc(F)c2F)c1F` [Example 297, N-{(2S,3R,4S)-4-fluoro-1-(2-methylpropanoyl)-2-[(2,2′,3′-trifluoro[1,1′-biphenyl]-3-yl)methyl]pyrrolidin-3-yl}ethanesulfonamide]: the “OX2R agonist activity (3 μM, %)” value is 95%.

As to `CCS(=O)(=O)N[C@@H]1[C@H](Cc2cccc(-c3cccc(C)c3)c2F)N(C(=O)C2CCO2)CC1(F)F` (stereo partly drawn) [Example 277, N-[(2S,3R)-4,4-difluoro-2-[(2-fluoro-3′-methyl[1,1′-biphenyl]-3-yl)methyl]-1-(oxetane-2-carbonyl)pyrrolidin-3-yl]ethanesulfonamide], the “OX2R agonist activity (3 μM, %)” value is recorded as 94%.

As for `CCS(=O)(=O)N[C@@H]1[C@H](Cc2cccc(-c3cccc(F)c3F)c2F)N(C(=O)[C@H]2CCCO2)CC1(F)F` [Example 455, N-{(2S,3R)-4,4-difluoro-1-[(2R)-oxolane-2-carbonyl]-2-[(2,2′,3′-trifluoro[1,1′-biphenyl]-3-yl)methyl]pyrrolidin-3-yl}ethanesulfonamide], the “OX2R agonist activity (3 μM, %)” value is listed as 85%.

`CCS(=O)(=O)N[C@@H]1[C@H](Cc2cccc(-c3cccc(F)c3)c2F)N(C(=O)C2CC2)CC1(F)F` [Example 202, N-{(2S,3R)-1-(cyclopropanecarbonyl)-2-[(2,3′-difluoro[1,1′-biphenyl]-3-yl)methyl]-4,4-difluoropyrrolidin-3-yl}ethanesulfonamide]: the “OX2R agonist activity (3 μM, %)” value amounted to 94%.

Regarding `CCS(=O)(=O)N[C@@H]1[C@H](Cc2cccc(-c3cccc(Cl)c3)c2F)N(C(=O)C2CCO2)CC1(F)F` (stereo partly drawn) [Example 267, N-[(2S,3R)-2-[(3′-chloro-2-fluoro[1,1′-biphenyl]-3-yl)methyl]-4,4-difluoro-1-(oxetane-2-carbonyl)pyrrolidin-3-yl]ethanesulfonamide], the “OX2R agonist activity (3 μM, %)” value was found to be 92%.

With `CCS(=O)(=O)N[C@H]1[C@@H](F)CN(C(=O)C2CC2)[C@H]1Cc1cccc(-c2cccc(F)c2)c1F` [Example 212, N-{(2S,3R,4S)-1-(cyclopropanecarbonyl)-2-[(2,3′-difluoro[1,1′-biphenyl]-3-yl)methyl]-4-fluoropyrrolidin-3-yl}ethanesulfonamide], the “OX2R agonist activity (3 μM, %)” value stood at 96%.

Regarding `CCS(=O)(=O)N[C@H]1[C@@H](F)CN(C(=O)[C@H]2CCCO2)[C@H]1Cc1cccc(-c2ccccc2)c1F` [Example 413, N-{(2S,3R,4S)-4-fluoro-2-[(2-fluoro[1,1′-biphenyl]-3-yl)methyl]-1-[(2R)-oxolane-2-carbonyl]pyrrolidin-3-yl}ethanesulfonamide], the “OX2R agonist activity (3 μM, %)” value amounted to 99%.

As to `CCS(=O)(=O)N[C@H]1[C@@H](F)CN(C(=O)C2(O)CCC2)[C@H]1Cc1cccc(-c2cccc(C)c2)c1F` [Example 536, N-[(2S,3R,4S)-4-fluoro-2-[(2-fluoro-3′-methyl[1,1′-biphenyl]-3-yl)methyl]-1-(1-hydroxycyclobutane-1-carbonyl)pyrrolidin-3-yl]ethanesulfonamide], the “OX2R agonist activity (3 μM, %)” value came to 98%.

In the case of `O=C(C1CCO1)N1C[C@H](F)[C@H](NS(=O)(=O)C2CC2)[C@@H]1Cc1cccc(-c2cc(F)cc(F)c2)c1F` (stereo partly drawn) [Example 493, N-{(2S,3R,4S)-4-fluoro-1-(oxetane-2-carbonyl)-2-[(2,3′,5′-trifluoro[1,1′-biphenyl]-3-yl)methyl]pyrrolidin-3-yl}cyclopropanesulfonamide], the “OX2R agonist activity (3 μM, %)” value was found to be 95%.

`CC(C)(O)C(=O)N1CC(F)(F)[C@H](NS(C)(=O)=O)[C@@H]1Cc1cccc(-c2ccccc2)c1F` [Example 4, N-[(2S,3R)-4,4-difluoro-2-[(2-fluoro[1,1′-biphenyl]-3-yl)methyl]-1-(2-hydroxy-2-methylpropanoyl)pyrrolidin-3-yl]methanesulfonamide]: the “OX2R agonist activity (3 μM, %)” value came out at 101%.

Regarding `CS(=O)(=O)N[C@@H]1[C@H](Cc2cccc(-c3cc(F)ccc3F)c2F)N(C(=O)C2CC(F)C2)CC1(F)F` (stereo partly drawn) [Example 439, N-{(2S,3R)-4,4-difluoro-1-(3-fluorocyclobutane-1-carbonyl)-2-[(2,2′,5′-trifluoro[1,1′-biphenyl]-3-yl)methyl]pyrrolidin-3-yl}methanesulfonamide], the “OX2R agonist activity (3 μM, %)” value was found to be 93%.

With `CCS(=O)(=O)N[C@H]1[C@@H](F)CN(C(=O)C(C)(C)O)[C@H]1Cc1cccc(-c2cc(Cl)ccc2F)c1F` [Example 348, N-[(2S,3R,4S)-2-[(5′-chloro-2,2′-difluoro[1,1′-biphenyl]-3-yl)methyl]-4-fluoro-1-(2-hydroxy-2-methylpropanoyl)pyrrolidin-3-yl]ethanesulfonamide], the “OX2R agonist activity (3 μM, %)” value is 103%.

On to `CCS(=O)(=O)N[C@H]1[C@@H](F)CN(C(=O)C2CCO2)[C@H]1Cc1cccc(-c2cc(F)cc(F)c2)c1F` (stereo partly drawn) [Example 304, N-{(2S,3R,4S)-4-fluoro-1-(oxetane-2-carbonyl)-2-[(2,3′,5′-trifluoro[1,1′-biphenyl]-3-yl)methyl]pyrrolidin-3-yl}ethanesulfonamide], for which the “OX2R agonist activity (3 μM, %)” value stood at 99%.
